Laboratory results as given in ChEMBL document CHEMBL1201862, “PubChem BioAssay data set” (2004).
The source made the active and inactive calls.

Key:
Estrogen receptor = biological target: T1, Estrogen receptor (Homo sapiens, UniProt P03372); experiment: ERα coactivator recruitment enhancers – biochemical, TR-FRET, ERα LBD, dose response (AID 737)
T1 sequence (P03372 whole entry): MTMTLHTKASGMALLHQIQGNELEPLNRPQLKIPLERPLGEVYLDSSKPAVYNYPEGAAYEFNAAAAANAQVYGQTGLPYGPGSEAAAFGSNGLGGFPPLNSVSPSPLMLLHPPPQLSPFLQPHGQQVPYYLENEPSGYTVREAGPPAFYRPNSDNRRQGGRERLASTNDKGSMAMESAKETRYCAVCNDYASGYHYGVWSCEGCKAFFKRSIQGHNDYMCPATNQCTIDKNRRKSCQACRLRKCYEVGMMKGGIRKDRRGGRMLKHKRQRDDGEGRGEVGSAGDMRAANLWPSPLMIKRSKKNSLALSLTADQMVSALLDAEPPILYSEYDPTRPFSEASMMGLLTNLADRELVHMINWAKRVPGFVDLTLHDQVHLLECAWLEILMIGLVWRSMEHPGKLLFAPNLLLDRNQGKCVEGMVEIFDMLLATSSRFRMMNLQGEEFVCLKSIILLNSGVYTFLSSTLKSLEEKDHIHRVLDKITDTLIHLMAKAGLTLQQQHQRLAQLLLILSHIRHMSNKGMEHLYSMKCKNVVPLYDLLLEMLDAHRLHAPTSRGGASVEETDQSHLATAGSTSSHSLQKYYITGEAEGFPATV

Cytochrome P450 2D6 = Cytochrome P450 2D6 (Homo sapiens, UniProt P10635); experiment: qHTS Assay for Inhibitors and Substrates of Cytochrome P450 2D6. [Related pubchem assays: 410 ]; type: ADME; conditions: read-out: Potency
Cytochrome P450 3A4 = Cytochrome P450 3A4 (Homo sapiens, UniProt P08684); conditions: Potency;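 note: confirmatory qHTS run detecting inhibitors and substrates of CYP3A4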
[1] = biological target: T2, Neuropeptide Y receptor type 1 (Homo sapiens, UniProt P25929); experiment: Fluorescence-based dose response cell-based high-throughput screening assay for agonists of NPY-Y1. [Related pubchem assays: 1697 (Screening assay (NPY-Y1 agonists).), 1359 (Screening assay (NPY-Y2 potentiators or agonists).), 1304 (Screening assay (NPY-Y1 potentiators or agonists).), 1704 (Screening assay (CNGC inhibitors).), 1791 (Summary AID.)]; type: functional
T2 sequence (P25929 whole entry): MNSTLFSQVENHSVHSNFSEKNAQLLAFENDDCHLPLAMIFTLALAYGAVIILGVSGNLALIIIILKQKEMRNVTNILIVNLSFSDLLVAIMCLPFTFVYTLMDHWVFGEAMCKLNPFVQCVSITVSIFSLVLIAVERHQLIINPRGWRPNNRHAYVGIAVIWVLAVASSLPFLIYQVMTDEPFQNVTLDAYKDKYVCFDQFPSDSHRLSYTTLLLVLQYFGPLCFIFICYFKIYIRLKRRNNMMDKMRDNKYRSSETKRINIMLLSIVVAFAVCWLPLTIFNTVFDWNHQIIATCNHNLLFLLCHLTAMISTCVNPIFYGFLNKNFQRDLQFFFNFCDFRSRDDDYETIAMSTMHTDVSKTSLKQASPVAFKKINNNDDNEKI

[2] = biological target: T3, Neuropeptide Y receptor type 2 (Homo sapiens, UniProt P49146); experiment: Fluorescence-based counterscreen for agonists of NPY-Y1: cell-based high-throughput dose response assay for agonists of NPY-Y2.; type: functional
T3 sequence (P49146 whole entry): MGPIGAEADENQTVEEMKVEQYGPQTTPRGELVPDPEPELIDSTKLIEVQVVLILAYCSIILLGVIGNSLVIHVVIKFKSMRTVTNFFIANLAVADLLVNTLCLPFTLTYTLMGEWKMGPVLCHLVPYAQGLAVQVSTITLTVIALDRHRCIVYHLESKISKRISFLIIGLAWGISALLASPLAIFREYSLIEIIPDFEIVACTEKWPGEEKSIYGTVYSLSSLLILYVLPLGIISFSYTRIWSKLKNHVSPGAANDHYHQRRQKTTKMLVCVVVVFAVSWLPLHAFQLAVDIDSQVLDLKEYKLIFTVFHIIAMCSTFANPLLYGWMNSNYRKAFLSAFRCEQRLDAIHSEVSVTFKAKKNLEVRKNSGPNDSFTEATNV

HEK293 = experiment: Fluorescence-based counterscreen for potentiators or agonists of NPY-Y1: cell-based high-throughput dose response assay for inhibitors of cyclic nucleotide gated ion channel (CNGC) activity. In this assay, the parental HEK293 cell line transfected with a cyclic-nucleotide gated ion channel (CNGC)-based cAMP sensor is used to measure inhibition of isoproterenol-induced CNGC …; type: functional; conditions: Homo sapiens
cells [3] = type: functional, cell-based
Nonstructural protein 1 = Nonstructural protein 1 (Influenza A virus, UniProt Q194T2); type: functional, Influenza A virus (A/California/07/2009(H1N1))
[4] = mitochondrial function rescue without frataxin homolog – Friedreich's ataxia, plus single-dose screen, dose response (AID 1465); type: functional;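 note: yeast depleted of Yfh1p frataxin homolog grown on glycerol needing respiration; WST-1 tetrazolium dye reduction as measure of cellular dehydrogenase metabolic activity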
cells [5] = type: functional, cell-based; remark: listed apart in the source
Estrogen receptor beta [6] = biological target: T4, Estrogen receptor beta (Homo sapiens, UniProt Q92731); experiment: blockers of SRC-3 recruitment to ERβ – biochemical, ELISA, streptavidin-HRP readout, orthogonal assay, confirmation (AID 1060)
Procathepsin L = Procathepsin L (Homo sapiens, UniProt P07711)
[7] = biological target: T5, RNA-binding protein pos-1 (Caenorhabditis elegans, UniProt G5EF15); experiment: disruptors of C. elegans POS-1 RNA interaction – biochemical, fluorescence polarization, dose response (AID 1964);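 note: purified POS-1 fused to maltose binding protein made in E. coli; potency of compounds blocking POS-1 binding to fluorescent RNA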
T5 sequence (G5EF15 whole entry): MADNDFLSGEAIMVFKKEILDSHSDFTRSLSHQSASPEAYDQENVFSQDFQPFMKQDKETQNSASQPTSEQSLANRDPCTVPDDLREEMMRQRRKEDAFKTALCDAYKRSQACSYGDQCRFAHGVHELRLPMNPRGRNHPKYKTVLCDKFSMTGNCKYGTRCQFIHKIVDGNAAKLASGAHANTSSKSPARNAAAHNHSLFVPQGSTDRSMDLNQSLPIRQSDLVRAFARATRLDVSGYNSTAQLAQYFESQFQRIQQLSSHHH

[8] = biological target: T6, Zinc finger protein mex-5 (Caenorhabditis elegans, UniProt Q9XUB2); experiment: potency of MEX-5 RNA-binding blockers – biochemical, C. elegans, fluorescence polarization, dose response (AID 1960)
T6 sequence (Q9XUB2 whole entry): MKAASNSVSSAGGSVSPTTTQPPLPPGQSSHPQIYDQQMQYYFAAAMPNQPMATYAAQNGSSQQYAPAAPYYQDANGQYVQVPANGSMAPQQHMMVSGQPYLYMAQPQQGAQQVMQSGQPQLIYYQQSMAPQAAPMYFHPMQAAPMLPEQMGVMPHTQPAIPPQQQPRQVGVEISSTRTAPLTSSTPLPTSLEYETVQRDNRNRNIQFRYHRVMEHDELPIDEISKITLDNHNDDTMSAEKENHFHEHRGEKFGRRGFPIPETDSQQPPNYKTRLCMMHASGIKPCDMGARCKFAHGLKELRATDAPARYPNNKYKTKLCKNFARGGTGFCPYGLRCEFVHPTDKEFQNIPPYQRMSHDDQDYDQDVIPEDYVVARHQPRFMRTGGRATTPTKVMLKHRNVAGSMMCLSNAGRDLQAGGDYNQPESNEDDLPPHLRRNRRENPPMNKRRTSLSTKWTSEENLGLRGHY

Large T antigen = Large T antigen (Simian virus 40, UniProt P03070); type: functional, Betapolyomavirus macacae;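 note: Confirmatory-stage PubChem screen for compounds that inhibit SV40 T antigen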
Aspartyl aminopeptidase = Aspartyl aminopeptidase (Plasmodium falciparum 3D7, UniProt Q8I2J3)
Estrogen receptor beta [9] = biological target: T4, Estrogen receptor beta
Leucine aminopeptidase = biological target: T7, Leucine aminopeptidase (Plasmodium falciparum 3D7, UniProt Q8IL11); experiment: P. falciparum M17LAP inhibitors, primary screen, biochemical, fluorogenic H-Leu-NHMec substrate, 1536-well (AID 1619); type: functional
T7 sequence (Q8IL11 whole entry): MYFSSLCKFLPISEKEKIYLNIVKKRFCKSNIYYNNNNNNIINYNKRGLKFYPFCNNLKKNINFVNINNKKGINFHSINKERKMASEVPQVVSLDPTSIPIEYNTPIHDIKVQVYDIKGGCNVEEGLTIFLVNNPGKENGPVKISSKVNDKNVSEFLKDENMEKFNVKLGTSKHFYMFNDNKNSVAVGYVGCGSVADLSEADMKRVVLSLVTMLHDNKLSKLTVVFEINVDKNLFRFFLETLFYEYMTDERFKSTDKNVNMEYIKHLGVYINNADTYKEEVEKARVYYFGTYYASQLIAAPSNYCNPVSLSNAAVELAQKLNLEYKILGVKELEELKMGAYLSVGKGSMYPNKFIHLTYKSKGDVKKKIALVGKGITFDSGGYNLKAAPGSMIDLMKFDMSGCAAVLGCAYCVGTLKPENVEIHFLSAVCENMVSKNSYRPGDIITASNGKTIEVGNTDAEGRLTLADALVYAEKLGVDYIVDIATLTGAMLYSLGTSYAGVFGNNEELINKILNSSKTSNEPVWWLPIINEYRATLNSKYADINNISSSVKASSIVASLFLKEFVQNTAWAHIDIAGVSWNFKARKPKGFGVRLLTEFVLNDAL

T4 sequence (Q92731 whole entry): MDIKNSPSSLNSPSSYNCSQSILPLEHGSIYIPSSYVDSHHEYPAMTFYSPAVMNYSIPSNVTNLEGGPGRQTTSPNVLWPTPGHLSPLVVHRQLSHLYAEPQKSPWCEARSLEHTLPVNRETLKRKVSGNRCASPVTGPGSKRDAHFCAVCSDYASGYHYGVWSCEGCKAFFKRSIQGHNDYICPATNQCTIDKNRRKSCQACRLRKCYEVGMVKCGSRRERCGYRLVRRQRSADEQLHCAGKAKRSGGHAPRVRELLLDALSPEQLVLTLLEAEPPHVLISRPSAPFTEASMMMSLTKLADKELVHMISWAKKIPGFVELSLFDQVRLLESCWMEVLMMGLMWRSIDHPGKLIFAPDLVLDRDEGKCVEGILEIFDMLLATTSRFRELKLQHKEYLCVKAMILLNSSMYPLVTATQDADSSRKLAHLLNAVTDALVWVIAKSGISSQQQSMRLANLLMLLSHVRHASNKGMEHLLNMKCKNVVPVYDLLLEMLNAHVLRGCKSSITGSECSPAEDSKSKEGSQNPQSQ
Sequence of Large T antigen (P03070 whole entry): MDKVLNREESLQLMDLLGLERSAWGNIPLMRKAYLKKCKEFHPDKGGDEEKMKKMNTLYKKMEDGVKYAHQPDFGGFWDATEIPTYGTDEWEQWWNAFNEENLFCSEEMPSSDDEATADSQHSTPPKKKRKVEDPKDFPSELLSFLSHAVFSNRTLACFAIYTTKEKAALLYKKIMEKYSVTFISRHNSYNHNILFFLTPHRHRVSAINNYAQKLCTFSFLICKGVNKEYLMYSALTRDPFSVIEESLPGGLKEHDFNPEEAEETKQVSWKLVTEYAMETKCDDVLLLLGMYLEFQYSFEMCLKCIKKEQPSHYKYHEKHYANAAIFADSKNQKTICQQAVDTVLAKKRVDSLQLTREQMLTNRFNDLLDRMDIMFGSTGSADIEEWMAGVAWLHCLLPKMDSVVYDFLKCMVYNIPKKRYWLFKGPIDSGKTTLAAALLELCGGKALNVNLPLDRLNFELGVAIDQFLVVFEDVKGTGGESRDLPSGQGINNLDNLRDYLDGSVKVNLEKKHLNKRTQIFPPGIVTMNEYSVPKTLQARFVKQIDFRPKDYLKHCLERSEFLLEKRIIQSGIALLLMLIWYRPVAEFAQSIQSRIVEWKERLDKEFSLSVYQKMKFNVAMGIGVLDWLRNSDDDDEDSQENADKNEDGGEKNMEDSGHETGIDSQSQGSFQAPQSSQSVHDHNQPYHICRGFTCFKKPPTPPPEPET
Sequence of Cytochrome P450 3A4 (P08684 whole entry): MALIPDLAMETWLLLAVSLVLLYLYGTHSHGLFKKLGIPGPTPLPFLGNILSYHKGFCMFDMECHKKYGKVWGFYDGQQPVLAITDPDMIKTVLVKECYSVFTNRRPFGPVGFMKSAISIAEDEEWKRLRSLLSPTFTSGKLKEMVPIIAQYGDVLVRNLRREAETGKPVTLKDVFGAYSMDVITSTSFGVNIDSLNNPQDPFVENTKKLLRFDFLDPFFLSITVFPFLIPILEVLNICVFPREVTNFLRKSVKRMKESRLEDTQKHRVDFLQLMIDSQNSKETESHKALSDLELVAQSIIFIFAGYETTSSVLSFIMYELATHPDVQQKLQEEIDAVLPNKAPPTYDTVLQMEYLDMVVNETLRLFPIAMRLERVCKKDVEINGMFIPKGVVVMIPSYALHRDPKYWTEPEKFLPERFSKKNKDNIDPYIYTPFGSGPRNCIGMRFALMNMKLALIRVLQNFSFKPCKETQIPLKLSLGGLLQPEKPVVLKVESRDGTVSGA
Sequence of Aspartyl aminopeptidase (Q8I2J3 whole entry): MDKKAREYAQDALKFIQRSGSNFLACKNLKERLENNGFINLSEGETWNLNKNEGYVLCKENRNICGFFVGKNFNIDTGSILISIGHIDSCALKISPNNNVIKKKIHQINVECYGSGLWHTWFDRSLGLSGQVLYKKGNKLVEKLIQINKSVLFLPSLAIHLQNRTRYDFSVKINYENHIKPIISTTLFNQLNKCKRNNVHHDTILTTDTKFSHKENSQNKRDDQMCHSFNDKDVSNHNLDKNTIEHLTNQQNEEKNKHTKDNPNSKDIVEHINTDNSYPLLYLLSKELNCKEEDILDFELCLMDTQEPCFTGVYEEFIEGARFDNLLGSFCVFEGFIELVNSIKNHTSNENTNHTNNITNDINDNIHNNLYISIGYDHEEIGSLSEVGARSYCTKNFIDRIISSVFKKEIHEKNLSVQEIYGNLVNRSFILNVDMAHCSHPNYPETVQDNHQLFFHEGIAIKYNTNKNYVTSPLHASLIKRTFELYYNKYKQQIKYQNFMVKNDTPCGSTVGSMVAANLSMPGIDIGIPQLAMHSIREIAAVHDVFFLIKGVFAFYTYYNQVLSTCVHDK
Sequence of Nonstructural protein 1 (Q194T2 whole entry): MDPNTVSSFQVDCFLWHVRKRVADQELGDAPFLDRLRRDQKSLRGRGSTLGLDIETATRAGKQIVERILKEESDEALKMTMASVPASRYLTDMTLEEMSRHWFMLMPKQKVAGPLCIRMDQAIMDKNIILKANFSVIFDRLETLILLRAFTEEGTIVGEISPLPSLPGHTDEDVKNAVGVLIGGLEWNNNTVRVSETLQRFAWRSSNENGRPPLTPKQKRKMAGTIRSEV
Sequence of Cytochrome P450 2D6 (P10635 whole entry): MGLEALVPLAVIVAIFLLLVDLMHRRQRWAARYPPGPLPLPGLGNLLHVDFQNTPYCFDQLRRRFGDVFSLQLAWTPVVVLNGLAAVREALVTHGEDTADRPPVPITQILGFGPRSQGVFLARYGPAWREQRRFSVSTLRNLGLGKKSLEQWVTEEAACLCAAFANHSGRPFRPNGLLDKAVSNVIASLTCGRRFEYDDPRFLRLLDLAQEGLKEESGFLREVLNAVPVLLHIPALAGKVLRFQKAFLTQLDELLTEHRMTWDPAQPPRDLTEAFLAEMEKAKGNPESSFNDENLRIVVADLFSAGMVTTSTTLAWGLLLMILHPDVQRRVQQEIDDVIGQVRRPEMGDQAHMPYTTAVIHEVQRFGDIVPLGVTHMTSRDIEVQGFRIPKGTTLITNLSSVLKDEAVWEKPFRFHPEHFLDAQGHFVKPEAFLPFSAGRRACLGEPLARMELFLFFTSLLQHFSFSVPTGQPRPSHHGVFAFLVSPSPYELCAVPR
Sequence of Procathepsin L (P07711 whole entry, the tested form may be a part): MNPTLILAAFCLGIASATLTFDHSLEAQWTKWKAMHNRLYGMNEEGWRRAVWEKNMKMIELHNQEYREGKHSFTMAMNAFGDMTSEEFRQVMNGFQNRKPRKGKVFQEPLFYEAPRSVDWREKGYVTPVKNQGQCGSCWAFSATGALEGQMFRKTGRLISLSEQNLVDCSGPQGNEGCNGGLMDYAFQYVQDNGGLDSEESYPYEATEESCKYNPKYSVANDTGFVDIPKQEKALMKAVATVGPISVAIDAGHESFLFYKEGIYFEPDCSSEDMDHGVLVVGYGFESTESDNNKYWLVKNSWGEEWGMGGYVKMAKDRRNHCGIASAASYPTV

With `CSc1nnc2c(n1)OC(c1ccsc1)N(C(C)=O)c1ccccc1-2` (stereo not drawn) as the compound, how does the EC50 (Estrogen receptor) read?
The EC50 was 22.6 µM (not active).

Which AC50 (Cytochrome P450 2D6) does the source give for `C=CCOCC/C=C1/c2ccccc2C(OC)C1C` (stereo not drawn) here?
Its AC50 is 3.16 µM (inconclusive).

What about the AC50 (Cytochrome P450 3A4) of the same compound?
Its AC50 is 3.16 µM (inconclusive).

With `COc1ccc(-n2nc3ccc(NS(C)(=O)=O)cc3n2)cc1Cl` as the compound, how does the EC50 [1] read?
The EC50 was > 35.4 µM (not active).

And the EC50 [2]?
The EC50 was > 35.4 µM (not active).

And the IC50 (HEK293)?
Its IC50 is > 35.4 µM (not active).

With `COc1ccc(O)c(/C=N/NC(=S)Nc2cccc(S(=O)(=O)N(C)C)c2)c1` as the compound, how does the EC50 (cells [3]) read?
The EC50 was > 350 µM (not active).

And the IC50 (Nonstructural protein 1)?
The IC50 was 8.98 µM (active).

What about the EC50 [4] of the same compound?
Its EC50 is > 100 µM (active).

And the EC50 (cells [5])?
The EC50 was 10.8 µM (active).

Which IC50 (Estrogen receptor beta [6]) does the source give for `Cc1nc(-c2ccc(O)c(O)c2)cs1` here?
The IC50 was 87.3 µM (not active).

What about the IC50 (Procathepsin L) of the same compound?
Its IC50 is > 59.6 µM (not active).

And the EC50 [7]?
Its EC50 is 36.6 µM (active).

And the EC50 [8]?
Its EC50 is 21.3 µM (active).

What about the IC50 (Large T antigen) of the same compound?
Its IC50 is 6.46 µM (active).

What about the IC50 (Aspartyl aminopeptidase) of the same compound?
Its IC50 is 1.3 µM (active).

What about the IC50 (Estrogen receptor beta [9]) of the same compound?
The IC50 was 10.2 µM (active).

What about the IC50 (Leucine aminopeptidase) of the same compound?
Its IC50 is 25.1 µM (active).
